From patent US7763441B2, “Modulators of gluconeogenesis” (Wyeth, priority 2006, dated 2010)
Like-named read-outs stand apart in the source and are kept apart here. Values belong to the compound of their own block, whether it stands above or below them.

Assays:
rat PEPCK promoter = assay: PEPCK-SEAP reporter assay in H4IIE cells; assay type: cell-based
Method: FIG. 5 schematically depicts the effects of EGR1 and DUSP4 expression levels on PEPCK promoter activity. For the experiments shown in panels A and B, H4IIE hepatocytes were transfected with the PEPCK-SEAP reporter plasmid and either DUSP4 or EGR1 expression plasmids or DUSP4 or EGR1 siRNA Smartpools. 24 hours after transfection the media were changed to 0.5%FBS/DMEM for 5 hours. […] Panel A depicts the effects of EGR1 modulation on PEPCK promoter activity; panel B depicts the effects of DUSP4 modulation on PEPCK promoter activity.
(§1) Panel A is a Western blot of H4IIE cells starved for 6 hours and then treated as indicated by the chart for 2 hours. […] is a specific p38 chemical inhibitor. LPS is included as a positive control of p38 activation.
The rat PEPCK promoter (−548 to +73) was amplified from rat genomic DNA using primers 5′-[…]-3′ (SEQ ID NO:8) and 5′-[…]-3′ (SEQ ID NO:9) (Xu et al. (2003)) J. Biol. Chem. 278:30187-30192). The human G6P promoter (−1227 to +57) was amplified from human genomic DNA using primers: 5′-[…]-3′ (SEQ ID NO:10) and 5′-[…]-3′ (SEQ ID NO:11). The promoters were subsequently cloned into XhoI and HindIII sites of pSEAP-BASIC vector (Clontech).
H4IIE cells were seeded in 24-well plates and transfected at 90% confluence using Tfx-50 Reagent (Promega). 0.9 μg of each SEAP reporter and 0.2 μg of pCMV-β-gal (BD Biosciences) were included. 0.4 μg of pCMV-XL5-human-DUSP4 (NM_001394, Origene) or pCMV-Sport6-human EGR1 (BC073983, Open Biosystems), or pMEV2HA-P38-WT and P38-EE (Biomyx), or empty pCMV-Sport6 were included. SiGenome Smartpool reagents were included at […]. […] 60 μl of the media was utilized for the SEAP assay (Great EscAPe SEAP Kit, BD Biosciences) and cell lysate was used for β-gal assay (Luminescent β-galactosidase detection kit, BD Biosciences).

EGR1 message = details: AML12, 500 μM AICAR
Method: (§2) Each gene is represented by a single row and each sample, in triplicate at each time point, by a column. […] The mean expression±STD of DUSP4 (qualifier #1428834_at) and EGR1 (qualifier #1417065_at) are illustrated graphically as well as highlighted in yellow on the cluster.
(§3) AML12 cells were maintained in DMEM/F12 medium containing 10% FCS, […], 5 ng/ml selenium and 40 ng/ml dexamethasone.
(§4) Double-stranded cDNA was synthesized starting with 5 μg of total RNA from the cells using the SuperScript System (Invitrogen, Carlsbad, Calif.). The cDNA was purified by filtration through Multiscreen filter plate (Millipore), and transcribed in vitro using T7 RNA polymerase (Epicentre, Madison, Wis.) and biotinylated nucleotides (Perkin-Elmer, Boston, Mass.). Hybridization buffer containing the spike pool reagent was added to each of the fragmented cRNA mixtures and each sample was hybridized to the Mouse Genome 430 2.0 array ([…]) or Rat Genome 230 2.0 array (RAE230) (Affymetrix, Santa Clara) at 45° C. for 18 hours as recommended by the manufacturer. The hybridized chips were washed and stained using Affymetrix Fluidics Station 450 and the EukGE-WS2v4—450 protocol as recommended by the manufacturer. The staining was performed using streptavidin-phycoerythrin conjugate (SAPE; Molecular Probes, Eugene, Oreg.), followed by biotinylated antibody against streptavidin (Vector Laboratories, Burlingame, Calif.), and then SAPE. The chips were scanned using an Affymetrix Genechip Scanner and .cel files were generated with Affymetrix Microarray Suite 5.0 (MAS 5.0) software.
(§5) Using normalized data, after removing lowly expressed genes, we performed ANOVA analysis.

DUSP4 message = details: AML12, 500 μM AICAR
Method: as §2, §3, §4, §5

G6P and PEPCK expression = details: rat hepatoma cells or primary hepatocytes (Lochhead et al. 2000); cited from earlier work
Fao hepatoma cells = assay: Glucose production assay in Fao cells; assay type: cell-based; details: cAMP plus dexamethasone, 500 μM AICAR
Method: For the experiment shown in panel A, Fao cells were transfected with either EGR1 or DUSP4 siRNA Smartpools. […] The cells were then cultured with phenol-red and glucose free RPMI1640 with 20 mM lactate and 2mM pyruvate. After 3 hours the media was collected and glucose output was determined. The data are presented as relative glucose production with the untreated transfected cells' glucose output set as 1. The asterisk indicates key changes between samples. P-values of all changes are ≦0.01 as determined by T-test. Panel B contains Western blots of EGR1 and DUSP4 or representative samples from the glucose production assay following transfection with the indicated siRNA Smartpools. The tubulin blot is included as a loading control.
1 million Fao cells cultured in RPMI1640 with 10% FCS were transfected with siGenome SMARTpool reagents for EGR1 (#M-100247-00), DUSP4 (#M-098966-00), or siCONTROL Non-Targeting siRNA (Dharmacon) using Optifect (Invitrogen) at 25 nM final concentration. […] Medium was collected 5 hours later and subjected to glucose measurement using the Amplex® Red Glucose/Glucose Oxidase Assay Kit (Molecular Probes). Cells were lysed and protein concentration was determined. The glucose output rate was normalized by cellular protein concentration and expressed as μg glucose/mg protein/5 hr. […]

EGR1 expression = details: H4IIE, AICAR
Method: The anti-tubulin blot is a loading control.
as §4
Total RNA was isolated from these cells and hybridized on the RAE430 2.0 array and analyzed in the same manner as the AML12 cells.

[1] = test system: rat DUSP4 promoter EGR1 site; details: H4IIE, AICAR 2 or 6 hours
Method: Arrows indicate sites of primers used for chromatin immunoprecipitation assay (−72 to −261 bp from the transcriptional start site).
To cross-link protein and DNA, formaldehyde was added at a 1% (vol/vol) concentration to H4IIE cells in a 100 mm dish. Fixation proceeded for 10 min at room temperature with gentle shaking and was stopped with the addition of glycine to a final concentration of 0.125M, and then the mixture was incubated at room temperature for 5 min. The cells were then washed twice with cold phosphate-buffered saline (PBS), harvested, and washed once with PBS containing PMSF. The cell pellet was lysed with immunoprecipitation assay lysis buffer (150 mM NaCl, 1% NP-40, 0.5% deoxycholate, 0.1% sodium dodecyl sulfate [SDS], 50 mM Tris [pH 8], 5 mM EDTA and protease inhibitors [1 mM PMSF, 10 μg of aprotinin/ml, 10 μg of leupeptin/ml]) and incubated on ice for 10 min. The resulting lysate was sonicated to give chromatin of an average length of 600 to 1,000 bp. The lysate was then microcentrifuged at 14,000 rpm for 10 min at 4° C. The lysate was then precleared with 50 μl of protein A beads (IPA 400; Repligen) for 15 min. Immunoprecipitations were performed overnight with 2 μg of antibody in a total volume of 500 μl at 4° C. […] A 5 μl aliquot was analyzed by PCR with Vent polymerase (NEB). […]

p38 = molecular target: T1, p38 (Rattus norvegicus, UniProt P70618); assay: Western blot of p38 phosphorylation in serum starved H4IIE cells; assay type: cell-based; details: 2 hours
T1 construct: addition of cAMP to serum starved H4IIE cells for 2 hours leads to an increase in the phosphorylation of p38; endogenous in cells; host or cells: H4IIE rat hepatoma cells
Method: as §1
(§6) FIG. 7A includes a Western blot probed with anti-p38 or anti-phosphor-p38 antibodies (Cell Signaling Technology) at a 1:1000 dilution.

JNK = details: H4IIE cells, data not shown
Excerpt: Members of the DUSP family show differing specificities for the MAPK family of kinases. DUSP4 has been previously shown to dephosphorylate and inactivate the MAPK family members ERK and JNK, but not p38.
as §6

DUSP4 mRNA = details: H4IIE, AICAR
Excerpt: (§7) As in FIG. 2, the anti-tubulin blot is a loading control.
(§8) Taqman was utilized since the DUSP4 probe set on the RAE430 2.0 array was not as sensitive as the DUSP4 set on the MOE430 2.0 array.

DUSP4 protein = details: H4IIE
Method: as §7
Lysates were prepared with a buffer containing 20 mM Tris (pH 7.5), 150 mM NaCl, 1 mM EDTA, 1 mM EGTA, 1% Triton X-100, 2.5 mM sodium pyrophosphate, 1 mM β-glycerophosphate, 1 mM sodium vanadate, and 1 μg of leupeptin/ml. 20 μg of lysate for each sample was run on NuPAGE 10% polyacrylamide bis/tris gels (Invitrogen) and transferred to PVDF membrane. Following blocking with 5% milk in TBS, anti-EGR1 (SC-110, Santa Cruz) at 1:1000 or anti alpha-tubulin (Abcam) at 1:2000 was blotted in TBS with 0.1% Tween. Goat anti-mouse HRP (Jackson Immuno-Research) was used at 1:5000 and blots were visualized by using enhanced chemiluminescence (NEN).
as §8

EGR1 = details: Bauer et al. 2005; cited from earlier work

T1 sequence (P70618 whole entry): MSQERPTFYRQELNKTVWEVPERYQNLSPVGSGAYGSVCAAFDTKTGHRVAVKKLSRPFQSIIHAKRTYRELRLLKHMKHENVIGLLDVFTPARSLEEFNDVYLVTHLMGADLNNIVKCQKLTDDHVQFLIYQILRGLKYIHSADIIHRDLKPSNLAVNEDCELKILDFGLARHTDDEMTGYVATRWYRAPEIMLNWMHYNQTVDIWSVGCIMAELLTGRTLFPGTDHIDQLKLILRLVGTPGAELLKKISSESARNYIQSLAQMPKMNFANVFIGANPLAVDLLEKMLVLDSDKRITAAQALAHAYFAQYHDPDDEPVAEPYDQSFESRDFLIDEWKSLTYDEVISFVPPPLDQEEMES

cAMP-induced phosphorylation of p38 (Western blot) (p38): inhibited
Compound: NC(=O)c1ncn([C@@H]2O[C@H](CO)[C@@H](O)[C@H]2O)c1N [AICAR]
Inhibition of PEPCK activation at low AICAR concentration (rat PEPCK promoter; 100 μM AICAR by itself): not sufficient to inhibit PEPCK activation
PEPCK transcription (activation) (rat PEPCK promoter; 100 μM AICAR, without exogenous EGR1): 12 fold
Repression of cAMP and dexamethasone activation of PEPCK reporter (rat PEPCK promoter; AICAR, control siRNA included): fully repressed
Effect on cAMP activation of the PEPCK promoter (rat PEPCK promoter; FIG. 7B): repress cAMP activation of the PEPCK promoter
Inhibition of cAMP and dexamethasone activation of the PEPCK promoter (rat PEPCK promoter; PEPCK-SEAP, AICAR 500 μM or DUSP4 expression vector): approximately 36 fold
EGR1 increase relative to control (EGR1 message; 2 hours): 3 fold
EGR1 increase relative to control (EGR1 message; 6 hours): 3 fold
EGR1 increase relative to control (EGR1 message; 24 hours): 2 fold
DUSP4 message increase relative to untreated controls (DUSP4 message; 2 hours): 4 fold
DUSP4 message increase relative to untreated controls (DUSP4 message; 6 hours): 6 fold
DUSP4 message increase relative to untreated controls (DUSP4 message; 24 hours): 5 fold
Expression of G6P and PEPCK (G6P and PEPCK expression): inhibits expression G6P and PEPCK
Glucose output after inhibition, distance from untreated levels (Fao hepatoma cells): ≤ 30%
EGR1 expression increase relative to control (EGR1 expression; 2 hours): 6 fold
EGR1 expression increase relative to control (EGR1 expression; 6 hours): 5 fold
EGR1 expression increase relative to control (EGR1 expression; 24 hours): 3 fold
EGR1 site of DUSP4 promoter amplified after anti-EGR1 chromatin immunoprecipitation (189 bp PCR product) [1]: amplified
JNK activity (JNK): not inhibited
DUSP4 message increase (DUSP4 mRNA; 2 hours): 20 fold
DUSP4 message increase (DUSP4 mRNA; 6 hours): 4 fold
DUSP4 message increase (DUSP4 mRNA; 24 hours): 4 fold
Time of AICAR treatment within which DUSP4 is induced (DUSP4 protein; AICAR): ≤ 2 h
DUSP4 protein level (Western blot) (DUSP4 protein; AICAR time course, decrease to more basal levels at 12 hours): increase of DUSP4 protein at 2 and 6 hours

Compound: CCCCCCCCCCCCCC(=O)O[C@@H]1[C@@H](C)[C@@]2(O)[C@@H](C=C(CO)C[C@]3(O)C(=O)C(C)=C[C@@H]23)[C@@H]2C(C)(C)[C@]12OC(C)=O [TPA, 12-O-tetradecanoylphorbol-13-acetate]
EGR1 biosynthesis (EGR1): strongly upregulates EGR1 biosynthesis

cAMP-induced phosphorylation of p38 (Western blot) (p38): inhibited
Compound: SB205830
